How the values were obtained:
[1] = test system: Wild-type AB zebrafish embryos; assay: Drug toxicity assessment on zebrafish embryos; format: in vivo, Zebrafish (Danio rerio); settings: 6 hpf to 72 hpf
Description: Zebrafish (Danio rerio) were obtained, staged and raised as described previously and maintained according to the OPBA of the Istituto di Ricerca Pediatrica guidelines. All procedures were conducted following the recommendations and the guidelines of the Animal Use Ethics Committee concerning the protection of animals used for scientific purposes.
Wild-type AB zebrafish embryos were treated with chemicals from shield stage (6 hpf) to larval stage (72 hpf) in a 12-well plate, by adding 20 larvae/well for each experimental condition. The zebrafish embryos were treated with compound 3d at the concentration of 30 nm and 300 nM. These concentrations were selected on the basis of the IC50 found above in HeLa cells. The drugs were added directly to the fish water diluted directly from the stock solution in DMSO. […] Subsequently, the treated embryos were kept at a constant temperature (28.5 °C). Embryos are monitored daily through a stereo microscope (Nikon SMZ745T; Nikon, Japan) and the morphological changes as well as the number of dead embryos were evaluated and recorded.

[2] = test system: HT29; assay: In vitro cell growth inhibition, resazurin viability assay; format: cell-based, human
Description: (§1) All the cell lines used in this paper were of human origin and purchased from the American Type Culture Collection (ATCC, Manassas, VA, USA). Colon adenocarcinoma (HT-29), non-small cell lung carcinoma (A549), cervix carcinoma (HeLa) and breast adenocarcinoma (MDA-MB-231) cells were grown in RPMI (HT29) or DMEM (A549, HeLa, MDA-MB-231) medium (Gibco, Milano, Italy). Both media were supplemented with 115 units/mL of penicillin G (Gibco, Milano, Italy), 115 μg/mL of streptomycin (Invitrogen, Milano, Italy) and 10% fetal bovine serum (Invitrogen, Milano, Italy). All cell lines were grown at 37 °C in a humidified 5% CO2 atmosphere. The cells were grown in 2 mL of complete medium.
(§2) Stock solutions were prepared for each compound by dissolving in DMSO at the final concentration of 10 mM.
(§3) The cells were seeded in 96-well plates at the appropriate density for each cell line. The respective cell line densities used for the antiproliferative assay were HeLa and HT29 5000 cells/well, A549 4000 cells/well and MDA-MB-231 7000 cells/well. The total volume of medium was 100 µL. After 24 h, the cells were treated by performing serial 5-fold dilutions of the tested compounds starting from a concentration of 10 μM. All experimental conditions were tested in triplicate for statistical analysis. After 72 h of incubation, 10 μL of 100 μg/mL resazurin solution was added to each well and the plate was re-incubated for 3–4 h. The fluorescence of the wells in each plate was monitored using a Spark 10M spectrophotometer (Tecan Group Ltd., Mannedorf, Switzerland) with a 535 nm excitation wavelength and a 600 nm emission wavelength.

[3] = test system: MDA-MB-231; assay: as above; format: cell-based, human
Description: as §1, §2, §3

[4] = test system: A549; assay: as above; format: cell-based, human
Description: as §1, §2, §3

[5] = test system: HeLa; assay: as above; format: cell-based, human
Description: as §1, §2, §3

[6] = test system: HeLa cells; assay: Cell cycle analysis by flow cytometry (PI); format: cell-based, human
Description: For these experiments, HeLa cells were used, which were seeded in 6-well plates at a concentration of 5 × 10^5/well in a final volume of 2 mL culture medium. The cells were then treated with the test compounds for 24 h at the indicated concentrations. After this incubation period, the cells were detached with trypsin-EDTA and harvested by centrifugation. The pellet thus obtained was fixed in 70% ice-cold ethanol.
After this incubation period, the cells were detached with trypsin-EDTA and harvested by centrifugation. The pellet thus obtained was fixed in 70% ice-cold ethanol for at least 1 h. The cells thus fixed were treated with a 0.1% v/v solution of Triton_X-100 in phosphate buffered saline (PBS) containing RNAseA and propidium iodide (PI) at the final concentration of 0.02 mg/mL. The cells were incubated at room temperature for 30 min and then analyzed on a Cytomic FC500 flow cytometer (Beckman Coulter) in the FL3 channel. DNA histograms were analyzed using MultiCycle for Windows (Phoenix Flow Systems, San Diego, CA, USA).

[7] = test system: Bovine brain tubulin; assay: Inhibition of tubulin polymerization (turbidimetric assembly assay); format: biochemical
Description: (§4) Bovine brain tubulin was purified as described previously. To evaluate the effects of the compounds on tubulin assembly in vitro [80], varying concentrations were preincubated with 10 μM tubulin in 0.8 M monosodium glutamate (pH 6.6) at 30 °C and the reaction mixtures then cooled to 0 °C. After addition of GTP, the mixtures were transferred to 0 °C cuvettes in Beckman Coulter (Brea, CA, USA) DU-7400/DU-7500 recording spectrophotometers equipped with electronic temperature controllers and warmed to 30 °C, and the assembly of tubulin was observed turbidimetrically. […] Inhibition of colchicine binding to tubulin was measured as described before, except that the reaction mixtures contained 0.5 μM tubulin and 5 μM each of [^3H]colchicine and test compound. Only one DEAE-cellulose filter was used per sample, and filtration was by gravity.
(§5) Bovine brain tubulin (see ref. [79] for details of purification) was used to examine effects on tubulin polymerization and colchicine binding. Briefly, in the polymerization experiments, different compound concentrations were preincubated with 10 µM tubulin for 15 min at 30 °C and cooled on ice. After GTP was added to each reaction mixture, the samples were transferred to 0 °C cuvettes in recording spectrophotometers with electronic temperature controllers. The temperature was raised to 30 °C over about 30 s, and turbidity development was followed for 20 min at 350 nm. […] In the current studies, [^3H]colchicine (from American Radiolabeled Corp., St. Louis, MO) binding was measured after 10 min at 37 °C. Reaction mixtures contained 0.5 µM tubulin and 5.0 µM each of the [^3H]colchicine and the potential inhibitor, and a single DEAE-cellulose filter was used for each sample, with gravity filtration.

[8] = test system: HeLa cells; assay: Apoptosis assay, annexin-V-FITC/PI flow cytometry; format: cell-based, human
Description: The quantification of the apoptosis induced by the test compounds was carried out by flow cytometric analysis using the Annexin-V Fluos kit (Roche Diagnostics, Rotkreuz, Switzerland) following the manufacturer’s instructions. The HeLa cells treated with the test compounds for different incubation times and at the indicated concentrations were then labeled with annexin V/FITC and PI and analyzed with Coulter Cytomics FC500 (Beckman Coulter) in the FL1 and FL3 channel, respectively.

[9] = test system: Bovine brain tubulin; assay: Inhibition of [3H]colchicine binding to tubulin; settings: tubulin 0.5 µM, [3H]colchicine 5 µM, tested compound 5 µM
Description: as §4, §5

## COc1cc(-c2ccnc3nc(Nc4ccc(C)cc4)nn23)cc(OC)c1OC [Compound 3d, N-(p-Tolyl)-7-(3,4,5-trimethoxyphenyl)-[1,2,4]triazolo[1,5-a]pyrimidin-2-amine]
[1]; 30 nM in fish water
  toxicity to zebrafish embryos: no morphological abnormalities or embryonic lethality
[1]; 300 nM in fish water, edema re-absorbed within the next 24 h
  toxicity to zebrafish embryos: small yolk sac edema in the majority of 48 hpf embryos
[2]; HT-29 cells
  fold greater activity than CA-4: 100 fold
[2]; Homo sapiens, HT-29, 72 h, resazurin, mean ± SE
  IC50: 0.03 ± 0.003 µM
[3]; Homo sapiens, MDA-MB-231, 72 h, resazurin, mean ± SE
  IC50: 0.43 ± 0.11 µM
[3]; MDA-MB-231 cells
  fold less potent than CA-4: 100 fold
[4]; A549 cells
  fold more potent than CA-4: 4 fold
[4]; Homo sapiens, A549, 72 h, resazurin, mean ± SE
  IC50: 0.043 ± 0.024 µM
[5]; HeLa cells
  fold less potent than CA-4: 10 fold
[5]; Homo sapiens, 72 h, resazurin, mean ± SE
  IC50: 0.038 ± 0.009 µM
[6]; 24 h
  concentration at which increase in G2/M cells was evident: 25 nM
[6]; 24 h, 10, 25 or 50 nM
  effect on cell cycle (G2/M): significant G2/M arrest in a concentration-dependent manner
[7]
  fold more active than CA-4 as inhibitor of tubulin assembly: 2 fold
  fold more potent than 2a as inhibitor of tubulin assembly: ~2 fold
[7]; tubulin at 10 μM, 20 min incubation, read-out: Tubulin Assembly IC50 ± SD
  IC50: 450 ± 100 nM
[8]; 50 nM, long incubation times
  necrotic cells (A−/PI+): about 25%
[8]; HeLa, 24 or 48 h
  induction of apoptosis: induced, in a concentration- and time-dependent manner, apoptosis
[9]
  Colchicine Binding % Inhibition ± SD: 72 ± 5%

— publication PMC9415608, “Design, Synthesis and Biological Investigation of 2-Anilino Triazolopyrimidines as Tubulin Polymerization Inhibitors with Anticancer Activities” (Pharmaceuticals, 2022)
